According to patent publication EP0774249A2, “Topical composition containing specific flavanones” (UNILEVER PLC, priority 1995, dated 1997):
“Also recorded” adds a separate entry of the source. Like-named read-outs stand apart in the source and are kept apart here.

Test system: Human Epidermal Keratinocytes
Experiment: Transglutaminase (TG-1) assay, ELISA on cultured keratinocytes
Type: cell-based
Details: for Effects on Differentiation (TG-1): after 72 hour incubation; for morphology of the cells / cytotoxic effect on keratinocytes: observation of the cultures; for TG-1 Expressed Day 1 / TG-1 Expressed Day 2: concentrations not given; for TG-1 production DAY 2 / TG-1 production DAY 3 / TG-1 production DAY 1: absorbance OD 490nm; for TG-1 production DAY 2: control 0.134 (Exp. 1), 0.152 (Exp. 2), 0.174 (Exp. 3); for TG-1 production DAY 3: control 0.143 (Exp. 1), 0.200 (Exp. 2), 0.218 (Exp. 3); for TG-1 production DAY 1: control 0.154 (Exp. 1), 0.179 (Exp. 2), 0.181 (Exp. 3); for stimulation of differentiation (TG-1 production) against the control: 10, 25, 50 µg/mL, days 1 to 3 (Table 2); for activity at 10 µg/mL / activity at 25 µg/mL / activity at 50 µg/mL: Homo sapiens, Keratinocyte; for TG-1 expressed on Day 1: single flavanone
[1] = Experiment 1, control 0.17 ± 0.01
[2] = Experiment 1, control 0.21 ± 0.02
[3] = Experiment 2, control 0.16 ± 0.01
[4] = Experiment 2, control 0.20 ± 0.01
[5] = 24 h, 10 µg/mL, read-out: DAY 1 (% over control) (converted)
[6] = 24 h, 25 µg/mL, read-out: DAY 1 (% over control) (converted)
[7] = 24 h, 50 µg/mL, read-out: DAY 1 (% over control) (converted)
[8] = 48 h, 10 µg/mL, read-out: DAY 2 (% over control) (converted)
[9] = 48 h, 25 µg/mL, read-out: DAY 2 (% over control) (converted)
[10] = 48 h, 50 µg/mL, read-out: DAY 2 (% over control) (converted)
[11] = 72 h, 10 µg/mL, read-out: DAY 3 (% over control) (converted)
[12] = 72 h, 25 µg/mL, read-out: DAY 3 (% over control) (converted)
[13] = 72 h, 50 µg/mL, read-out: DAY 3 (% over control) (converted)
[14] = 5μg/mL, control 0.17 (Exp. 1), 0.19 (Exp. 3)
[15] = 10μg/mL, control 0.17 (Exp. 1), 0.19 (Exp. 3)

O=c1cc(-c2ccc(O)cc2)oc2cc(O)cc(O)c12 [Apigenin, reference compound]
Effects on Differentiation (TG-1) (5 and 15 µg/ml): No effect | morphology of the cells / cytotoxic effect on keratinocytes (5 and 15 µg/ml): disrupted the cell membranes

CCCCCCCCCCCCC/C=C/C(O)C(CO)NC(C)=O (stereo not shown) [C2-Ceramide (Formula A)]
TG-1 Expressed Day 1 [1]: 0.15 ± 0.01^1 | TG-1 Expressed Day 2 [2]: 0.23 ± 0.02^3

CCCCCCCCCCCCCCCCN(CC(O)CO)C(C)=O (stereo not shown) [C2-Neoceramide (Formula F)]
TG-1 Expressed Day 1 [3]: 0.16 ± 0.01 | TG-1 Expressed Day 2 [4]: 0.21 ± 0.02

O=c1cc(-c2ccccc2)oc2cc(O)cc(O)c12 [Chrysin, reference compound]
Effects on Differentiation (TG-1) (5 and 15 µg/ml): No effect

O=c1ccc2ccccc2o1 [Coumarin, reference compound]
Effects on Differentiation (TG-1) (5 and 15 µg/ml): No effect

O=c1c(-c2ccc(O)cc2)coc2cc(O)ccc12 [Daidzein, reference compound]
stimulation or inhibition of differentiation processes, time course study (5 and 15 µg/ml): no effects | Effects on Differentiation (TG-1) (5 and 15 µg/ml): No effect | morphology of the cells / cytotoxic effect on keratinocytes (5 and 15 µg/ml): no morphological changes

Oc1cc(O)c2c(c1)O[C@H](c1ccc(O)c(O)c1)[C@H](O)C2 [Epicatechin, reference compound]
Effects on Differentiation (TG-1) (5 and 15 µg/ml): No effect

O=C1CC(c2ccc(O)c(O)c2)Oc2cc(O)cc(O)c21 (stereo not shown) [Eriodictyol]
TG-1 production DAY 2 (10 µg/mL): 0.194 ± 0.01 | TG-1 production DAY 3 (10 µg/mL): 0.264 ± 0.03 | TG-1 production DAY 1 (10 µg/mL): 0.178 ± 0.02 | TG-1 production DAY 2 (25 µg/mL): 0.222 ± 0.05 | TG-1 production DAY 3 (25 µg/mL): 0.314 ± 0.07 | TG-1 production DAY 1 (25 µg/mL): 0.211 ± 0.04 | TG-1 production DAY 2 (50 µg/mL): 0.174 ± 0.02 | TG-1 production DAY 3 (50 µg/mL): 0.193 ± 0.05 | TG-1 production DAY 1 (50 µg/mL): 0.186 ± 0.02 | Effects on Differentiation (TG-1) (5 and 15 µg/ml): Increase TG-1 | Effects on Differentiation (TG-1) (5 and 15 µg/ml, listed as eriodictyol): stimulated TG-1 production | stimulation of differentiation (TG-1 production) against the control: stimulated differentiation to the same extent or higher than the control | activity at 10 µg/mL [5]: 99% | activity at 25 µg/mL [6]: 118% | activity at 50 µg/mL [7]: 104% | activity at 10 µg/mL [8]: 128% | activity at 25 µg/mL [9]: 146% | activity at 50 µg/mL [10]: 115% | activity at 10 µg/mL [11]: 132% | activity at 25 µg/mL [12]: 157% | activity at 50 µg/mL [13]: 97%

O=c1c(O)c(-c2ccc(O)c(O)c2)oc2cc(O)ccc12 [Fisetin, reference compound]
Effects on Differentiation (TG-1) (5 and 15 µg/ml): No effect

COc1ccc(-c2coc3cc(O)ccc3c2=O)cc1 [Formonoetin, reference compound]
Effects on Differentiation (TG-1) (5 and 15 µg/ml): No effect

COc1ccc(C2CC(=O)c3c(O)cc(O)cc3O2)cc1O (stereo not shown) [Hesperetin]
TG-1 expressed on Day 1 [14]: 0.19 ± 0.01 ^1 | TG-1 expressed on Day 1 [15]: 0.19 ± 0.02 ^1 | TG-1 production DAY 2 (10 µg/mL): 0.155 ± 0.01 | TG-1 production DAY 3 (10 µg/mL): 0.190 ± 0.01 | TG-1 production DAY 1 (10 µg/mL): 0.142 ± 0.01 | TG-1 expressed on Day 1 (20μg/mL, control 0.19 (Exp. 2)): 0.20 ± 0.02 | TG-1 production DAY 2 (25 µg/mL): 0.167 ± 0.02 | TG-1 production DAY 3 (25 µg/mL): 0.182 ± 0.01 | TG-1 production DAY 1 (25 µg/mL): 0.148 ± 0.02 | TG-1 expressed on Day 1 (40μg/mL, control 0.19 (Exp. 2)): 0.20 ± 0.01 | TG-1 production DAY 2 (50 µg/mL): 0.213 ± 0.04 | TG-1 production DAY 3 (50 µg/mL): 0.196 ± 0.01 | TG-1 production DAY 1 (50 µg/mL): 0.154 ± 0.04 | Effects on Differentiation (TG-1) (5 and 15 µg/ml): Increase TG-1 | Effects on Differentiation (TG-1) (5 and 15 µg/ml, listed as hesperetin): effective keratinocyte pro-differentiating agents; also recorded: stimulated TG-1 production | stimulation of differentiation (TG-1 production) against the control: stimulated differentiation to the same extent or higher than the control | TG-1 Expressed Day 1 [1]: 0.14 ± 0.01^1 | TG-1 Expressed Day 2 [2]: 0.22 ± 0.02 | TG-1 Expressed Day 1 [3]: 0.15 ± 0.01^2 | TG-1 Expressed Day 2 [4]: 0.21 ± 0.02 | activity at 10 µg/mL [5]: 92% | activity at 25 µg/mL [6]: 96% | activity at 50 µg/mL [7]: 100% | activity at 10 µg/mL [8]: 116% | activity at 25 µg/mL [9]: 125% | activity at 50 µg/mL [10]: 159% | activity at 10 µg/mL [11]: 133% | activity at 25 µg/mL [12]: 127% | activity at 50 µg/mL [13]: 137%

COc1ccc([C@@H]2CC(=O)c3c(O)cc(O[C@@H]4O[C@H](CO[C@@H]5O[C@@H](C)[C@H](O)[C@@H](O)[C@H]5O)[C@@H](O)[C@H](O)[C@H]4O)cc3O2)cc1O [Hesperidin, reference compound]
Effects on Differentiation (TG-1) (5 and 15 µg/ml): No effect

O=C1C[C@@H](c2ccc(O)cc2)Oc2cc(O)cc(O)c21 [Naringenin]
TG-1 expressed on Day 1 [14]: 0.19 ± 0.02 | TG-1 expressed on Day 1 [15]: 0.21 ± 0.01 ^5 | TG-1 production DAY 2 (10 µg/mL): 0.149 ± 0.01 | TG-1 production DAY 3 (10 µg/mL): 0.159 ± 0.01 | TG-1 production DAY 1 (10 µg/mL): 0.147 ± 0.01 | TG-1 production DAY 2 (25 µg/mL): 0.200 ± 0.03 | TG-1 production DAY 3 (25 µg/mL): 0.171 ± 0.02 | TG-1 production DAY 1 (25 µg/mL): 0.207 ± 0.02 | TG-1 production DAY 2 (50 µg/mL): 0.186 ± 0.01 | TG-1 production DAY 3 (50 µg/mL): 0.169 ± 0.01 | TG-1 production DAY 1 (50 µg/mL): 0.156 ± 0.01 | Effects on Differentiation (TG-1) (5 and 15 µg/ml): Increase TG-1 | Effects on Differentiation (TG-1) (5 and 15 µg/ml, listed as naringenin): effective keratinocyte pro-differentiating agents; also recorded: stimulated TG-1 production | stimulation of differentiation (TG-1 production) against the control: stimulated differentiation to the same extent or higher than the control | activity at 10 µg/mL [5]: 99% | activity at 25 µg/mL [6]: 134% | activity at 50 µg/mL [7]: 101% | activity at 10 µg/mL [8]: 111% | activity at 25 µg/mL [9]: 149% | activity at 50 µg/mL [10]: 139% | activity at 10 µg/mL [11]: 111% | activity at 25 µg/mL [12]: 120% | activity at 50 µg/mL [13]: 118%

CC1OC(OC2C(Oc3cc(O)c4c(c3)OC(c3ccc(O)cc3)CC4=O)OC(CO)C(O)C2O)C(O)C(O)C1O (stereo not shown) [Naringin, reference compound]
Effects on Differentiation (TG-1) (5 and 15 µg/ml): No effect | Effects on Differentiation (TG-1) (5 and 15 µg/ml, listed as naringin): not an effective material for promoting the differentiation of keratinocytes

O=c1c(O)c(-c2ccc(O)c(O)c2)oc2cc(O)cc(O)c12 [Quercetin, reference compound]
Effects on Differentiation (TG-1) (5 and 15 µg/ml): No effect
